Data: patent US8632821B2, “Use of xenon for treating hypersensitivity to pain” (L'Air Liquide, Société Anonyme pour l'Etude et …, priority 2009, dated 2014)
Entries after “also recorded” stand apart in the source; their conditions may differ.

Tested on: male Sprague-Dawley rats
Test: Carrageenan model of inflammatory pain, paw-pressure vocalization test (Randall-Selitto)
Assay type: in vivo, rat
Protocol: In order to show the efficacy of the gas mixture according to the invention in the prevention of post-traumatic hyperalgesia, a model of inflammatory pain was used in rats, namely male Sprague-Dawley rats, in the context of preclinical studies.
An inflammatory product, carrageenan (0.2 ml of saline solution with 1% of carrageenan), was injected subcutaneously into the sole of the hind paw of a rat.
Two xenon concentrations by volume were tested, namely: • a ternary gas mixture made up of 25% Xe+25% N2+50% O2, and • a binary gas mixture made up of 50% Xe+50% O2.
The nociceptive threshold, i.e. the pain threshold, was evaluated using the paw-pressure vocalization test (Randall-Selitto), in which increasing pressures (measured in grams) are applied to the hind paw of the rat until the rat squeaks.
More specifically, on Day 0 (D0), the inflammatory product, i.e. the carrageenan (Car), was injected into a hind paw of the rats.
The exposure of the rats to the gases by inhalation begins 1 h 45 after the injection of Car and lasts for 1 h 45. The nociceptive threshold is evaluated 1 h 30, 2 h 30, 3 h 00, 3 h 30 and 4 h 30 after the injection of Car and then once a day until a return to the basal nociceptive threshold.

## [Xe] [xenon]
50% Xe+50% O2 (FIG. 2A) versus 25% Xe+25% N2+50% O2 (FIG. 1A), inflamed paw
  analgesic effect during administration, 50% content compared with 25% content: more effective
Inhaled xenon 25% or 50% by volume, exposure 1 h 45 starting 1 h 45 after carrageenan, inflamed paw
  analgesic effect during administration (nociceptive threshold): has an analgesic effect
Xenon at 25% (25% Xe+25% N2+50% O2) inhaled 1 h 45, control air/Car 4 days, FIG. 1A
  duration of delayed hyperalgesia on the inflamed paw: 2 days
Xenon at 50% (50% Xe+50% O2) inhaled 1 h 45, FIG. 2A
  delayed hyperalgesia on the inflamed paw: totally prevents
Xenon at 50% (50% Xe+50% O2) inhaled 1 h 45, FIG. 2B
  delayed hyperalgesia on the non-inflamed paw: totally prevents; also recorded: completely prevents
